From US6894068B2, “Substituted benzimidazoles as non-nucleoside inhibitors of reverse transcriptase” (The United States of America as represented by the …, priority 1997, dated 2005)
Where two headings read alike, the source gives them in different places.

Experiments:
HIV-1 WT virus (NL4-3) = assay: microbe, parasite or virus in culture; type: cell-based; conditions: for EC50: Human immunodeficiency virus 1, NL43, CEM-SS, read-out: EC50
Protocol: Evaluation of these compounds for the inhibition of HIV-1 was determined as the fifty percent cell culture inhibitory concentration (CIC50) in CEMSS cell culture with WT virus (NL4-3).
(§1) In this Example, the antiviral and cellular toxicity of NNRTIs was investigated, using the cytopathic cell killing assay described by Yang (Yang et al., “Characteristics of a Group of Non-nucleoside Reverse Transcriptase Inhibitors with Structural Diversity and Potent Anti-Human Immunodeficiency Virus Activity,” Leukemia 9:S75-S85 [1995]). Briefly, in this method cells (e.g., the CEM-SS cell line, available from the NIAID AIDS Research and Reference Program [ARRRP]) were seeded at a density of 5×10^3 cells/well, into the wells of a 96-well microtiter plate. The cells were then infected with HIV virus (either mutant or WT), at a multiplicity of infection (MOI) previously determined to provide complete cell killing by 6 days of culture post-infection (e.g., MOI of 0.01-0.05). Each of the HIV isolates was pre-titered to induce equivalent levels of infection based on cell killing or virus production, prior to their use in these assays. A range of test compound concentrations was added to the wells in triplicate (e.g., serial half-log dilutions) to evaluate inhibition of HIV infection. Controls for each assay included drug controls (drug colorimetric control wells), drug cytotoxicity control wells (cells with drug), virus control wells (cells with virus), and cell viability controls (cells only). Positive control drugs (e.g. AZT and ddC) were also run in parallel.
(§2) After six days of incubation at 37° C., cell viability was determined spectrophotometrically at 450 nm for each well, using the metabolic reduction of XTT to a soluble colored formazan. (See, Gartner and Popovic, “Virus Isolation and Production, in Aldovini and Walker (eds.), Techniques in HIV Research, Stockton Press, NY, pp. […] [1991]; and Nara and Fischinger, “Quantitative Infectivity Assay for HIV-1 and HIV-2, ” Nature 332:469-470 [1988]).
(§3) The in vitro therapeutic index (TI50) was defined as the fold-difference between the EC50 and IC50. The results for the various compounds are included in FIGS. 8 and 19.

HIV-1 isolate Y188C = assay: Cytopathic cell killing assay, MT-4 cells, isolate Y188C; type: cell-based
Description: (§4) The various HIV isolates tested in the Figures are those corresponding to wild-type virus (NL4-3) and the other strains listed by their RT mutations. The three 4×AZT isolates included in the Figures represent AZT drug-resistant variants. For example, the 4×AZT/L100I isolate has five mutations: four mutations confer increased resistance to AZT, and the other mutation is located within the NNRTI binding pocket. TZB and nevir. (nevirapine) are two well-known NNRTIs, included in this experiment for comparison purposes.
as §1, §2, §3

[1] = tested on: HIV-1 isolate 4xAZT/Y181C; assay: Cytopathic cell killing assay, MT-4 cells, isolate 4xAZT/Y181C; type: cell-based; conditions: read-out: EC50, isolate 4XAZT/Y181C; Table 9; MT-4 cells
Description: as §4, §1, §2, §3

HIV-1 isolate K101E = assay: Cytopathic cell killing assay, MT-4 cells, isolate K101E; type: cell-based; conditions: Human immunodeficiency virus 1, MT4, read-out: EC50, isolate K101E, Table 4; MT-4 cells
Description: as §4, §1, §2, §3

HIV-1 isolate K103N = assay: Cytopathic cell killing assay, MT-4 cells, isolate K103N; type: cell-based; conditions: Human immunodeficiency virus 1, MT4, read-out: EC50, isolate K103N, Table 4; MT-4 cells
Description: as §4, §1, §2, §3

[2] = tested on: WT and HIV-1 variants containing amino acid substitutions in RT; type: cell-based; conditions: Table 4 isolates
Description: In these Tables, antiviral data are reported as the quantity of drug in μM required to reduce cell killing or virus production by 50% (EC50). The various HIV isolates tested in the Figures are those corresponding to wild-type virus (NL4-3) and the other strains listed by their RT mutations. The three 4×AZT isolates included in the Figures represent AZT drug-resistant variants.
Briefly, in this method cells (e.g., the CEM-SS cell line, available from the NIAID AIDS Research and Reference Program [ARRRP]) were seeded at a density of 5×10^3 cells/well, into the wells of a 96-well microtiter plate. The cells were then infected with HIV virus (either mutant or WT), at a multiplicity of infection (MOI) previously determined to provide complete cell killing by 6 days of culture post-infection (e.g., MOI of 0.01-0.05). Each of the HIV isolates was pre-titered to induce equivalent levels of infection based on cell killing or virus production, prior to their use in these assays. A range of test compound concentrations was added to the wells in triplicate (e.g., serial half-log dilutions) to evaluate inhibition of HIV infection. Controls for each assay included drug controls (drug colorimetric control wells), drug cytotoxicity control wells (cells with drug), virus control wells (cells with virus), and cell viability controls (cells only). Positive control drugs (e.g. AZT and ddC) were also run in parallel.
as §2
Antiviral and toxicity data were reported as the quantity of drug required to inhibit 50% of virus-induced cell killing or virus production (EC50), and the quantity of drug required to […] (IC50). The in vitro therapeutic index (TI50) was defined as the fold-difference between the EC50 and IC50.

HIV-1 isolate V108I = assay: Cytopathic cell killing assay, MT-4 cells, isolate V108I; type: cell-based; conditions: Human immunodeficiency virus 1, MT4, read-out: EC50, isolate V108I, Table 4; MT-4 cells
Description: as §4, §1, §2, §3

HIV-1 isolate Y181C = assay: Cytopathic cell killing assay, MT-4 cells, isolate Y181C; type: cell-based; conditions: Human immunodeficiency virus 1, MT4, read-out: EC50, isolate Y181C, Table 9; MT-4 cells
Description: as §4, §1, §2, §3

HIV-1 isolate Y188H = assay: Cytopathic cell killing assay, isolate Y188H; type: cell-based; conditions: Human immunodeficiency virus 1, read-out: EC50, isolate Y188H
Description: as §4, §1, §2, §3

[3] = Table 7, drug concentration required to reduce cell killing or virus production by 50%, WT

Row | Structure (SMILES) | cytotoxicity and anti-viral effect, summary graph, result in words (HIV-1 WT virus (NL4-3); FIGS. 10-12) | EC50 (HIV-1 WT virus (NL4-3); [3]) [µM] | EC50 (HIV-1 WT virus (NL4-3); Table 11, CEMSS/NL4-3, NRVC = no reduction in viral CPE) [µM] | therapeutic index at 50% (TC50) (HIV-1 WT virus (NL4-3); difference between efficacy of the drug and cellular toxicity, FIG. 10) | EC50 (HIV-1 isolate Y188C; Human immunodeficiency virus 1, MT4, read-out: EC50, isolate Y188C, Table 4, MT-4 cells) [µM] | EC50 (HIV-1 isolate Y188C; Human immunodeficiency virus 1, MT4, read-out: EC50, isolate Y188C, Table 10, values in μM) [µM] | EC50 [1] [µM] | EC50 (HIV-1 isolate K101E) [µM] | EC50 (HIV-1 isolate K103N) [µM] | fold better in the inhibition of the various viral isolates than des-methyl analog 26 [2] | melting point [°C] | EC50 (HIV-1 isolate V108I) [µM] | EC50 (HIV-1 isolate Y181C) [µM] | EC50 (HIV-1 isolate Y188H) [µM]
1 | Cc1cccc2c1nc(-c1c(F)cccc1F)n2Cc1c(F)cccc1F [Compound 33, 1-(2,6-difluorobenzyl)-2-(2,6-difluorophenyl)-4-methylbenzimidazole] | very effective therapeutic dose | 0.44 | 0.44 | greater than one log in concentration | 2.3 | 2.3 | 3.5 | 16.7 | 8.1 | 3- to 4 fold | 182 to 186 | 2.8 | 4.3 | –
2 | O=[N+]([O-])c1cccc2c1nc(-c1c(F)cccc1F)n2Cc1c(F)cccc1F [Compound 3100, 1-(2,6-difluorobenzyl)-2-(2,6-difluorophenyl)-4-nitrobenzimidazole] | – | 2.4 | – | – | – | – | – | – | – | – | 169 | – | – | > 50
